How the values were obtained:
[1] = biological target: Dual specificity protein kinase CLK2 (Homo sapiens) (UniProt P49760); test: Inhibition of CLK2 (unknown origin) assessed as residual activity at 100 nM by KINOMEscan analysis relative to control
[2] = biological target: T1, Ephrin type-A receptor 6 (Homo sapiens) (UniProt Q9UF33); test: Inhibition of EPHA6 (unknown origin) assessed as residual activity at 100 nM by KINOMEscan analysis relative to control
T1 sequence (whole entry): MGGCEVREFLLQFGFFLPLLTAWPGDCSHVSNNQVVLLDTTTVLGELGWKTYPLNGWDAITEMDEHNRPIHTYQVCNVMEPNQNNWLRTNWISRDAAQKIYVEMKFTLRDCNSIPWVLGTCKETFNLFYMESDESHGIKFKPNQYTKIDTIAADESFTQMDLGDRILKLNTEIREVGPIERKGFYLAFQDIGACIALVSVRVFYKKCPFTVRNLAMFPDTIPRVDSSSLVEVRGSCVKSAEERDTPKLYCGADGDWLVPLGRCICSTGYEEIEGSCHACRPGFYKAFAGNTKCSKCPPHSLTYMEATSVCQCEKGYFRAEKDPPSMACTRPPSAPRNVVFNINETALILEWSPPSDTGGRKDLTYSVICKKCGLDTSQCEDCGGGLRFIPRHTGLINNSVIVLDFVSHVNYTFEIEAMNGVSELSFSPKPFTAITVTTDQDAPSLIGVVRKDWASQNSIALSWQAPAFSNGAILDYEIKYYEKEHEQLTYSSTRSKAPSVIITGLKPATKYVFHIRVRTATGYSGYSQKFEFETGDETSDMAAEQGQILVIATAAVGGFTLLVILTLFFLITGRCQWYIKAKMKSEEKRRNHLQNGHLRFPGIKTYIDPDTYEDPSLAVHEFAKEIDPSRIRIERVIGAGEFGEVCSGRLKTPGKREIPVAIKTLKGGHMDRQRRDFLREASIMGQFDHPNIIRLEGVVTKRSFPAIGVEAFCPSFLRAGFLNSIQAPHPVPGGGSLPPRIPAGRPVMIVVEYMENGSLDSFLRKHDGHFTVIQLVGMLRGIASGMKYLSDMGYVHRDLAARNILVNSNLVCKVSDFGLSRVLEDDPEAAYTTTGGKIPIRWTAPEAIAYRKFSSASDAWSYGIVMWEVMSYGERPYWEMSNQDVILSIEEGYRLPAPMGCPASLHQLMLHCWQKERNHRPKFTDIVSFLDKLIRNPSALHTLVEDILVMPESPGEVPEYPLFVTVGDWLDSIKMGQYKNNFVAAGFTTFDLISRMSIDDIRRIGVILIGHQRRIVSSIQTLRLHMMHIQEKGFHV

[3] = biological target: T2, Ephrin type-B receptor 4 (Homo sapiens) (UniProt P54760); test: Inhibition of EPHB4 (unknown origin) assessed as residual activity at 100 nM by KINOMEscan analysis relative to control
T2 sequence (whole entry): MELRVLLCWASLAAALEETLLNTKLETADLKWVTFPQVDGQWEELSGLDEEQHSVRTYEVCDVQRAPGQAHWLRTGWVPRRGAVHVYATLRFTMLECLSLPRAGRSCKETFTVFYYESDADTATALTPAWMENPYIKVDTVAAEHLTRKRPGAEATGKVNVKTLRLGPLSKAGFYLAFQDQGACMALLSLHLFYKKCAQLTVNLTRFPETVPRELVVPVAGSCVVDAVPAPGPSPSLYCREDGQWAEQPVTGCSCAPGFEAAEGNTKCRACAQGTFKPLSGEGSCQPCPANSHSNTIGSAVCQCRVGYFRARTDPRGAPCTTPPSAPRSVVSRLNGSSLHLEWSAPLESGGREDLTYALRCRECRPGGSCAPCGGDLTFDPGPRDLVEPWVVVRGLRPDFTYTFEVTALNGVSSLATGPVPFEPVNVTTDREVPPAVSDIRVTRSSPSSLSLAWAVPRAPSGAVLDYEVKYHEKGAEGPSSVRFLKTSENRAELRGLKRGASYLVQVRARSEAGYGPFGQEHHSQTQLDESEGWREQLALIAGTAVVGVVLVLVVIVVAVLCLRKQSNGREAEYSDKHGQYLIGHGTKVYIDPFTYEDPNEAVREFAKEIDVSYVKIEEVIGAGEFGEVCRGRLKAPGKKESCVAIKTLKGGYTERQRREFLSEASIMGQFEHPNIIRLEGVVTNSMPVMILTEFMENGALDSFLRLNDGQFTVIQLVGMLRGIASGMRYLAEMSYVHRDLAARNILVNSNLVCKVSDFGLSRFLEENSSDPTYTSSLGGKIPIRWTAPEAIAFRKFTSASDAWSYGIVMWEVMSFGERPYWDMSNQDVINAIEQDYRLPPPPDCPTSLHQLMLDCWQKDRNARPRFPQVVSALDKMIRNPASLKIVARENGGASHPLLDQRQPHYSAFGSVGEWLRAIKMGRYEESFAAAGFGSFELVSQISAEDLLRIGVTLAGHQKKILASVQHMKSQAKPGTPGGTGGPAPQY

[4] = biological target: Ribosomal protein S6 kinase alpha-1 (Homo sapiens) (UniProt Q15418); test: Inhibition of N-terminal RSK1 kinetic domain 1 (unknown origin) assessed as residual activity at 100 nM by KINOMEscan analysis relative to control
Sequence of Ribosomal protein S6 kinase alpha-1 (Homo sapiens) (Q15418 whole entry, the tested form may be a part): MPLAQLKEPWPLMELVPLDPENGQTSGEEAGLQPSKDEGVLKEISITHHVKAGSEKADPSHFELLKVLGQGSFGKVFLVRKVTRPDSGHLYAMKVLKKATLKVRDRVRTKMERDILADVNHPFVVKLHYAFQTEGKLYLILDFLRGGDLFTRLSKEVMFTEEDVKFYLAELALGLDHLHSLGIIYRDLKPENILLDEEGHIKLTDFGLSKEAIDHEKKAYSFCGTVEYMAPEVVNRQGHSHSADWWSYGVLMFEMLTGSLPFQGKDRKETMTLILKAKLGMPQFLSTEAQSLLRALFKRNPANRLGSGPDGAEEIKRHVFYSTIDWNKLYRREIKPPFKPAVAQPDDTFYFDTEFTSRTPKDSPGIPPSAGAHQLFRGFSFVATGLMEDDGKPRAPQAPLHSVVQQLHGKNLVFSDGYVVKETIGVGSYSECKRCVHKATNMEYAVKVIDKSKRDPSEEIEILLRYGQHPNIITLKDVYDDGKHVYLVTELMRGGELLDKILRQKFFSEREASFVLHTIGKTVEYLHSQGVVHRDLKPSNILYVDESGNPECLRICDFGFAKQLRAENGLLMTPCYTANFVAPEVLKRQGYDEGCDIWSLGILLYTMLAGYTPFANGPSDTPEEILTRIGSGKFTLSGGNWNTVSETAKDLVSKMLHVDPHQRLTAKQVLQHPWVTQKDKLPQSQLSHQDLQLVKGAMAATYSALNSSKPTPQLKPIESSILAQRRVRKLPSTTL

Sequence of Dual specificity protein kinase CLK2 (Homo sapiens) (P49760 whole entry, looked up): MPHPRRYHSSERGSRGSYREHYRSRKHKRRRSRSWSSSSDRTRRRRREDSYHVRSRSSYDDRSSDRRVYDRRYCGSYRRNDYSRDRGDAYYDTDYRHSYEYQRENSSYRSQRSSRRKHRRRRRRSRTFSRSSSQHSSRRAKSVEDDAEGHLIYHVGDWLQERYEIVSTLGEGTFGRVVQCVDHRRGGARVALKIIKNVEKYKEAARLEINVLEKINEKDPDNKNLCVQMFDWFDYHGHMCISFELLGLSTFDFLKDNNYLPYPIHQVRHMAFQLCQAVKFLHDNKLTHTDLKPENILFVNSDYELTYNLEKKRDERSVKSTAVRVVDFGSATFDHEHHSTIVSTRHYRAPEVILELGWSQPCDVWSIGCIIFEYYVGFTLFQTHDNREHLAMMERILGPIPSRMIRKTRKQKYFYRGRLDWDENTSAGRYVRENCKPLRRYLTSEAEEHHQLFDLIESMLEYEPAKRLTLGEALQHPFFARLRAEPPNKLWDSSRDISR

COc1cc2ncnc(N[C@H](C)c3cccc4ccccc34)c2cc1OC
Activity [1]: 100% | Activity [2]: 77% | Activity [3]: 75% | Activity [4]: 90%

Reference: ChEMBL document CHEMBL5678818, “Discovery of potent SOS1 inhibitors that block RAS activation via disruption of the RAS-SOS1 interaction” (Proc Natl Acad Sci U S A, 2019)
